Results: ChEMBL document CHEMBL3352394, “Acinetobacter baumannii OxPhos inhibitors as selective anti-infective agents” (Bioorg Med Chem Lett, 2015)
Converted amounts (≈) assume the structure as drawn. The source made the active and inactive calls. The calls are words filed in the database; no cut-off is given here.

Assays:
[1] = Selectivity ratio of IC50 for oxidative phosphorylation system-mediated ATP synthesis in bovine heart submitochondrial particle to IC50 for oxidative phosphorylation system-mediated ATP synthesis in Acinetobacter baumannii membranes; type: cell membranes
Acinetobacter baumannii [2] = assay: Antimicrobial activity against Acinetobacter baumannii; type: functional
[3] = Inhibition of Electron transport protein complex-dependent oxidative phosphorylation system-mediated ATP synthesis in bovine heart submitochondrial particle; design: species or system Bos taurus
[4] = Inhibition of Electron transport protein complex-dependent oxidative phosphorylation system-mediated ATP synthesis in Acinetobacter baumannii membranes; type: cell membranes
HepG2 = assay: Cytotoxicity against human HepG2 cells after 1 hr by MTS reduction assay in absence of serum; type: cell-based; conditions: HepG2, 1 h
[5] = Cytotoxicity against mouse NIH/3T3 cells after 1 hr by MTS reduction assay in absence of serum; type: cell-based; conditions: NIH3T3, 1 h
[6] = Half life in mouse liver microsomes; type: ADME
Acinetobacter baumannii [7] = assay: Bactericidal activity against Acinetobacter baumannii at 8 times IC50 by time-kill assay; type: functional, organism-based
Acinetobacter baumannii [8] = assay: Inhibition of NDH1-mediated O2 consumption in Acinetobacter baumannii membranes at 50 to 100 uM in presence of succinate; type: cell membranes
Acinetobacter baumannii [9] = assay: Antimicrobial activity against Acinetobacter baumannii ATCC 17978; type: functional
Staphylococcus aureus [10] = assay: Antimicrobial activity against methicillin-resistant Staphylococcus aureus USA 300; type: functional
Escherichia coli [11] = assay: Antimicrobial activity against Escherichia coli ATCC 25922 in presence of 40% serum; type: functional
Acinetobacter baumannii [12] = assay: Antimicrobial activity against Acinetobacter baumannii BAA-1606; type: functional
[13] = Half life in human liver microsomes; type: ADME
Klebsiella pneumoniae [14] = assay: Antimicrobial activity against Klebsiella pneumoniae ATCC 4352; type: functional
Escherichia coli [15] = assay: Antimicrobial activity against Escherichia coli ATCC 25922; type: functional
Acinetobacter baumannii [16] = assay: Inhibition of NDH1-mediated O2 consumption in Acinetobacter baumannii membranes at 50 uM in presence of NADH; type: cell membranes
Klebsiella pneumoniae [17] = assay: Antimicrobial activity against Klebsiella pneumoniae ATCC 13883; type: functional
Acinetobacter baumannii [18] = assay: Inhibition of NDH1-mediated O2 consumption in Acinetobacter baumannii membranes at 50 uM in presence of NADH and ascorbate/TMPD; type: cell membranes
Staphylococcus aureus [19] = assay: Antimicrobial activity against Staphylococcus aureus ATCC 25923; type: functional
Klebsiella pneumoniae [20] = assay: Antimicrobial activity against Klebsiella pneumoniae ATCC 13883 in presence of 40% serum; type: functional
Pseudomonas aeruginosa = assay: Antimicrobial activity against Pseudomonas aeruginosa ATCC 10145; type: functional

## CCN(CC)CCn1c(=O)n(CC(O)COc2ccc(Cl)cc2Cl)c2ccccc21 (configuration not stated)
[1]
  Ratio IC50: 1.8
Acinetobacter baumannii [2]
  MIC: > 100 µM
[3]
  IC50: 21 µM
[4]
  IC50: 12 µM

## CCN(CC)CCn1c(N)nc2ccccc21
[1]
  Ratio IC50: 2.5
Acinetobacter baumannii [2]
  MIC: > 100 µM
[3]
  IC50: 100 µM
[4]
  IC50: 40 µM

## N=c1n(CCCOc2ccc(Cl)cc2Cl)c2ccccc2n1CC(=O)N1CCN(c2ccccc2)CC1.O=C(O)C(F)(F)F
[1]
  Ratio IC50: 0.8
Acinetobacter baumannii [2]
  MIC: > 100 µM
HepG2
  IC50: 1300 µM
[3]
  IC50: 0.8 µM
[5]
  IC50: 400 µM
[6]
  half-life: 25.2 min
[4]
  IC50: 1 µM

## N=c1n(CCCOc2ccc(Cl)cc2Cl)c2ccccc2n1CCCc1ccccc1.O=C(O)C(F)(F)F
[1]
  Ratio IC50: 1.1
Acinetobacter baumannii [2]
  MIC: 25 µM
HepG2
  IC50: 65 µM
[3]
  IC50: 2.2 µM
[5]
  IC50: 36 µM
[6]
  half-life: 48.2 min
[4]
  IC50: 2.1 µM

## N=c1n(CCCOc2ccc(Cl)cc2Cl)c2ccccc2n1CCc1ccccn1
[1]
  Ratio IC50: 2.1
Acinetobacter baumannii [2]
  MIC: 100 µM (≈ 44.1 µg/mL)
HepG2
  IC50: 60 µM
[3]
  IC50: 6.6 µM
[5]
  IC50: 36 µM
[4]
  IC50: 3.2 µM

## N=c1n(CCCOc2ccc(Cl)cc2Cl)c2ccccc2n1CCn1ccnc1
[1]
  Ratio IC50: 2.7
Acinetobacter baumannii [2]
  MIC: > 100 µM
HepG2
  IC50: 137 µM
[3]
  IC50: 49.7 µM
[5]
  IC50: 61 µM
[4]
  IC50: 18.3 µM

## CCN(CC)CCNc1nc2ccccc2n1CC(O)COc1ccc(Cl)cc1Cl (configuration not stated)
[1]
  Ratio IC50: 9.4
Acinetobacter baumannii [2]
  MIC: > 100 µM
[3]
  IC50: 47 µM
[4]
  IC50: 5 µM

## CCN(CC)CCn1c(=N)n(CCCc2ccc(Cl)cc2Cl)c2ccccc21
[1]
  Ratio IC50: 1.9
Acinetobacter baumannii [2]
  MIC: 25 µM (≈ 10.5 µg/mL)
[3]
  IC50: 9.4 µM
Acinetobacter baumannii [7]
  Activity: Active
[4]
  IC50: 5 µM

## N=c1n(CCCOc2ccc(Cl)cc2Cl)c2ccccc2n1Cc1ccc(C(F)(F)F)nc1.O=C(O)C(F)(F)F
[1]
  Ratio IC50: 1
Acinetobacter baumannii [2]
  MIC: 50 µM
HepG2
  IC50: 35 µM
[3]
  IC50: 0.9 µM
[5]
  IC50: 22 µM
[6]
  half-life: > 90 min
[4]
  IC50: 0.9 µM

## CCCCn1c(=N)n(CCCOc2ccc(Cl)cc2Cl)c2ccccc21
[1]
  Ratio IC50: 0.5
Acinetobacter baumannii [2]
  MIC: 50 µM (≈ 19.6 µg/mL)
HepG2
  IC50: 72 µM
[3]
  IC50: 1.8 µM
[5]
  IC50: 28 µM
[4]
  IC50: 3.8 µM

## CCN(CC)CCCNc1nc2ccccc2n1CCCOc1ccc(Cl)cc1Cl
[1]
  Ratio IC50: 2.5
Acinetobacter baumannii [2]
  MIC: 50 µM (≈ 22.5 µg/mL)
[3]
  IC50: 20 µM
[4]
  IC50: 8 µM

## N=c1n(CCCOc2ccc(Cl)cc2Cl)c2ccccc2n1CCN1CCCC1
[1]
  Ratio IC50: 2.3
Acinetobacter baumannii [2]
  MIC: 13 µM (≈ 5.63 µg/mL)
HepG2
  IC50: 67 µM
[3]
  IC50: 4.9 µM
[5]
  IC50: 12 µM
[4]
  IC50: 2.1 µM

## Br.CCN(CC)CCn1c(=N)n(CCCOc2ccc(Cl)cc2Cl)c2ccccc21
Acinetobacter baumannii [8]
  inhibition: inactive
[1]
  Ratio IC50: 3
Acinetobacter baumannii [9]
  MIC: 12.5 mg/L
Staphylococcus aureus [10]
  MIC: 5 mg/L
Escherichia coli [11]
  MIC: > 22 mg/L
Acinetobacter baumannii [12]
  MIC: 12.5 mg/L
Acinetobacter baumannii [2]
  MIC: 13 µM
[13]
  half-life: 9.2 min
Klebsiella pneumoniae [14]
  MIC: 5 mg/L
HepG2
  IC50: 83 µM
[3]
  IC50: 2.9 µM
Escherichia coli [15]
  MIC: 11 mg/L
Acinetobacter baumannii [16]
  inhibition: Active
Klebsiella pneumoniae [17]
  MIC: 22 mg/L
Acinetobacter baumannii [18]
  inhibition: inactive
Staphylococcus aureus [19]
  MIC: 11 mg/L
Klebsiella pneumoniae [20]
  MIC: > 22 mg/L
[5]
  IC50: 20 µM
Acinetobacter baumannii [7]
  Activity: Active
[6]
  half-life: 13 min
[4]
  IC50: 0.61 µM
Pseudomonas aeruginosa
  MIC: > 22 mg/L

## CCn1c(=N)n(CCCOc2ccc(Cl)cc2Cl)c2ccccc21
[1]
  Ratio IC50: 1.4
Acinetobacter baumannii [2]
  MIC: 50 µM (≈ 18.2 µg/mL)
HepG2
  IC50: 96 µM
[3]
  IC50: 8.8 µM
[5]
  IC50: 24 µM
[4]
  IC50: 6.4 µM

## N=c1n(CCCOc2ccc(Cl)cc2Cl)c2ccccc2n1CCN1CCCC1=O
[1]
  Ratio IC50: 0.9
Acinetobacter baumannii [2]
  MIC: > 100 µM
HepG2
  IC50: 63 µM
[3]
  IC50: 3.1 µM
[5]
  IC50: 99 µM
[4]
  IC50: 3.6 µM

## OC(CNCc1nc2ccccc2[nH]1)COc1ccc(Cl)cc1Cl (configuration not stated)
[1]
  Ratio IC50: 2.6
Acinetobacter baumannii [2]
  MIC: > 100 µM
[3]
  IC50: 106 µM
[4]
  IC50: 41 µM

## N=c1n(CCCOc2ccc(Cl)cc2Cl)c2ccccc2n1CCN1CCOCC1
[1]
  Ratio IC50: 2.8
Acinetobacter baumannii [2]
  MIC: > 100 µM
HepG2
  IC50: 215 µM
[3]
  IC50: 25.5 µM
[5]
  IC50: 76 µM
[4]
  IC50: 9.2 µM

## CCN(CC)CCn1c(=N)n(CC(O)COc2ccc(Cl)cc2Cl)c2ccccc21 (configuration not stated)
Acinetobacter baumannii [2]
  MIC: 25 µM (≈ 11.3 µg/mL)
[3]
  IC50: 5.6 µM
Acinetobacter baumannii [16]
  inhibition: Active
Acinetobacter baumannii [7]
  Activity: Active
[4]
  IC50: 1.9 µM

## Nc1nc2ccccc2n1CCCOc1ccc(Cl)cc1Cl
[1]
  Ratio IC50: 0.9
Acinetobacter baumannii [9]
  MIC: 6.25 mg/L (≈ 18.6 µM)
Acinetobacter baumannii [12]
  MIC: 6.25 mg/L (≈ 18.6 µM)
Acinetobacter baumannii [2]
  MIC: 25 µM (≈ 8.41 µg/mL)
[3]
  IC50: 0.8 µM
[4]
  IC50: 0.9 µM

## CCN(CC)C(=O)Cn1c(=N)n(CCCOc2ccc(Cl)cc2Cl)c2ccccc21
[1]
  Ratio IC50: 1.9
Acinetobacter baumannii [2]
  MIC: > 100 µM
HepG2
  IC50: 143 µM
[3]
  IC50: 11.4 µM
[5]
  IC50: 68 µM
[4]
  IC50: 6 µM

## N=c1n(CCCOc2ccc(Cl)cc2Cl)c2ccccc2n1CCCN1CCCCC1
[1]
  Ratio IC50: 6.2
Acinetobacter baumannii [2]
  MIC: 50 µM (≈ 23.1 µg/mL)
HepG2
  IC50: 83 µM
[3]
  IC50: 22.4 µM
[5]
  IC50: 37 µM
[4]
  IC50: 3.6 µM

## CCN(CC)CCCNc1nc2ccccc2n1CC(O)COc1ccc(Cl)cc1Cl (configuration not stated)
[1]
  Ratio IC50: 1.3
Acinetobacter baumannii [2]
  MIC: > 100 µM
[3]
  IC50: 13 µM
[4]
  IC50: 10 µM

## OC(COc1ccc(Cl)cc1Cl)Cn1c(NCCCN2CCOCC2)nc2ccccc21 (configuration not stated)
[1]
  Ratio IC50: 1.2
Acinetobacter baumannii [2]
  MIC: > 100 µM
[3]
  IC50: 9.6 µM
[4]
  IC50: 7.8 µM

## COLISTIN
Acinetobacter baumannii [2]
  MIC90: 2 mg/L

## CC(C)N(CCn1c(=N)n(CCCOc2ccc(Cl)cc2Cl)c2ccccc21)C(C)C
[1]
  Ratio IC50: 1.5
Acinetobacter baumannii [2]
  MIC: 13 µM (≈ 6.02 µg/mL)
HepG2
  IC50: 39 µM
[3]
  IC50: 2.5 µM
[5]
  IC50: 19 µM
[4]
  IC50: 1.7 µM

## Cc1noc(C)c1Cn1c(=N)n(CCCOc2ccc(Cl)cc2Cl)c2ccccc21
[1]
  Ratio IC50: 3.2
Acinetobacter baumannii [2]
  MIC: 100 µM (≈ 44.5 µg/mL)
HepG2
  IC50: 168 µM
[3]
  IC50: 6.1 µM
[5]
  IC50: 94 µM
[4]
  IC50: 1.9 µM

## CCN(CC)CCn1c(=N)n(CCOc2ccc(Cl)cc2Cl)c2ccccc21
[1]
  Ratio IC50: 2.7
Acinetobacter baumannii [2]
  MIC: 100 µM (≈ 42.1 µg/mL)
[3]
  IC50: 18.3 µM
Acinetobacter baumannii [7]
  Activity: Active
[4]
  IC50: 6.9 µM

## CCOCCOCCn1c(=N)n(CCCOc2ccc(Cl)cc2Cl)c2ccccc21
[1]
  Ratio IC50: 1.1
Acinetobacter baumannii [2]
  MIC: > 100 µM
HepG2
  IC50: 151 µM
[3]
  IC50: 6 µM
[5]
  IC50: 62 µM
[4]
  IC50: 5.6 µM

## CC(C)(C)OC(=O)N1CCC(CCn2c(=N)n(CCCOc3ccc(Cl)cc3Cl)c3ccccc32)CC1
[1]
  Ratio IC50: 0.6
Acinetobacter baumannii [2]
  MIC: 50 µM (≈ 27.4 µg/mL)
HepG2
  IC50: 42 µM
[3]
  IC50: 1 µM
[5]
  IC50: 25 µM
[4]
  IC50: 1.7 µM

## CCCN(CCC)CCn1c(=N)n(CCCOc2ccc(Cl)cc2Cl)c2ccccc21
[1]
  Ratio IC50: 1
Acinetobacter baumannii [2]
  MIC: 25 µM (≈ 11.6 µg/mL)
HepG2
  IC50: 49 µM
[3]
  IC50: 2.9 µM
[5]
  IC50: 28 µM
[4]
  IC50: 2.8 µM
